Here are results for 24 compounds from ChEMBL document CHEMBL1140610, “Matrix metalloproteinases (MMPs): chemical-biological functions and (Q)SARs” (Bioorg Med Chem, 2007).

pIC50: −log10 of the molar value.

In one test the target is Matrix metalloproteinase-14 (Homo sapiens, UniProt P50281).
Details: not given
With `CCOCCC1(Oc2ccc(Oc3ccccc3Cl)cc2)C(=O)NC(=O)NC1=O`, the pIC50 (as a rule, −log10 of the IC50, conventionally taken in molar units) was 6.29.
Still for that read-out and setting: with `CCOCCC1(Oc2ccc(Oc3ccc(C(=O)N(C)C)cc3)cc2)C(=O)NC(=O)NC1=O` the figure was 5.03.
`CCOCCC1(Oc2ccc(Oc3ccc(Cl)cc3)cc2)C(=O)NC(=O)NC1=O` gave a pIC50 of 7.74.
Still for that read-out and setting: with `CCOCCC1(Oc2ccc(Oc3cccc(F)c3)cc2)C(=O)NC(=O)NC1=O` the figure was 7.22.
The compound `CCOCCC1(Oc2ccc(Oc3ccc(C(N)=O)cc3)cc2)C(=O)NC(=O)NC1=O` had a pIC50 of 6.21.

The next test has as its target Collagenase 3 (Homo sapiens, UniProt P45452).
Details: not given
With `COc1ccc(S(=O)(=O)N2CCCN(C(=O)CNOC(=O)C(C)(C)C)CC2C(=O)NO)cc1` (stereo not given), the pIC50 is 7.80.
On to `COc1ccc(S(=O)(=O)N2CCN(C(=O)c3nnsc3C)CC2C(=O)NO)cc1` (stereo not given), for which the pIC50 is 7.68.
The same measure, in the same setting: with `COc1ccc(S(=O)(=O)N2CCN(C(=O)C(O)C(C)C)CC2C(=O)NO)cc1` (stereo not given) the figure was 9.00.
On to `COCCOC(=O)N1CCC(C(C(=O)O)N(Cc2cccnc2)S(=O)(=O)c2ccc(-c3ccc(OC)cc3)cc2)CC1` (stereo not given), for which the pIC50 was 8.52.

For another test, the target named is T1, Matrilysin (Homo sapiens, UniProt P09237).
T1 sequence (P09237 whole entry): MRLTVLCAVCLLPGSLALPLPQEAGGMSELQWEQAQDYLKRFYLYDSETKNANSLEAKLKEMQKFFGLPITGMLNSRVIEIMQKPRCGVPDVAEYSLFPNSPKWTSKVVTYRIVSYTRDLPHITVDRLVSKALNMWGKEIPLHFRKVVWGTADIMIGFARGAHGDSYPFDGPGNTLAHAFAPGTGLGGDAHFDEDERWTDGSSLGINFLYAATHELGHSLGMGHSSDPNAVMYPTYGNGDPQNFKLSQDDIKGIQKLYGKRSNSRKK
The conditions noted are these: read-out: log(1/IC50) (converted).
Regarding `CN1CC(=O)N(C2C[C@H](C(=O)NO)N(S(=O)(=O)c3ccc(Oc4ccccc4)cc3)C2)C1=O` (stereo not given in full), the IC50 was 309 nM.
Take `COCCOc1ccc(S(=O)(=O)N2CC(N3C(=O)CN(C)C3=O)C[C@@H]2C(=O)NO)cc1` (stereo not given in full): the IC50 is 9120 nM.
As to `CCCCOc1ccc(S(=O)(=O)N2CC(N3C(=O)NC(C)(C)C3=O)C[C@@H]2C(=O)NO)cc1` (stereo not given in full), the IC50 was 447 nM.
Same read-out and setting: with `CCCCOc1ccc(S(=O)(=O)N2CC(N3C(=O)NC(SC)C3=O)C[C@@H]2C(=O)NO)cc1` (stereo not given in full) the figure was 851 nM; with `CN1CC(=O)N(C2C[C@H](C(=O)NO)N(S(=O)(=O)c3ccc(Oc4ccncc4)cc3)C2)C1=O` (stereo not given in full), 7410 nM.
The same measure, in the same setting: under `CCCCOc1ccc(S(=O)(=O)N2CC(N3C(=O)CN(C)C3=O)C[C@@H]2C(=O)NO)cc1` (stereo not given in full) stands 1580 nM; under `C=CCN1CC(=O)N(C2C[C@H](C(=O)NO)N(S(=O)(=O)c3ccc(OCCOC)cc3)C2)C1=O` (stereo not given in full), 11000 nM.
For `C=CCN1CC(=O)N(C2C[C@H](C(=O)NO)N(S(=O)(=O)c3ccc(OCCC)cc3)C2)C1=O` (stereo not given in full), the IC50 was 2570 nM.
Same read-out and setting: with `CCOc1ccc(S(=O)(=O)N2CC(N3C(=O)CN(C)C3=O)C[C@@H]2C(=O)NO)cc1` (stereo not given in full) the figure was 7590 nM; with `CC(C)COc1ccc(S(=O)(=O)N2CC(N3C(=O)CN(C)C3=O)C[C@@H]2C(=O)NO)cc1` (stereo not given in full), 2290 nM; with `C=CCN1CC(=O)N(C2C[C@H](C(=O)NO)N(S(=O)(=O)c3ccc(OCCCC)cc3)C2)C1=O` (stereo not given in full), 1000 nM.
On the same count and under the same terms, under `COc1ccc(S(=O)(=O)N2CC(N3C(=O)CN(C)C3=O)C[C@@H]2C(=O)NO)cc1` (stereo not given in full) stands 1820 nM; under `CCCCOc1ccc(S(=O)(=O)N2CC(N3C(=O)CN(CCC)C3=O)C[C@@H]2C(=O)NO)cc1` (stereo not given in full), 1200 nM.
Still for that read-out and setting: with `CCCN1CC(=O)N(C2C[C@H](C(=O)NO)N(S(=O)(=O)c3ccc(OCCOC)cc3)C2)C1=O` (stereo not given in full) the figure was 11000 nM.
`CCCOc1ccc(S(=O)(=O)N2CC(N3C(=O)CN(C)C3=O)C[C@@H]2C(=O)NO)cc1` (stereo not given in full): the IC50 was 2570 nM.

The target of a further test is Neutrophil collagenase (Homo sapiens, UniProt P22894). The conditions noted are these: read-out: log(1/IC50) (converted).
Neutrophil collagenase, sequence (P22894 whole entry): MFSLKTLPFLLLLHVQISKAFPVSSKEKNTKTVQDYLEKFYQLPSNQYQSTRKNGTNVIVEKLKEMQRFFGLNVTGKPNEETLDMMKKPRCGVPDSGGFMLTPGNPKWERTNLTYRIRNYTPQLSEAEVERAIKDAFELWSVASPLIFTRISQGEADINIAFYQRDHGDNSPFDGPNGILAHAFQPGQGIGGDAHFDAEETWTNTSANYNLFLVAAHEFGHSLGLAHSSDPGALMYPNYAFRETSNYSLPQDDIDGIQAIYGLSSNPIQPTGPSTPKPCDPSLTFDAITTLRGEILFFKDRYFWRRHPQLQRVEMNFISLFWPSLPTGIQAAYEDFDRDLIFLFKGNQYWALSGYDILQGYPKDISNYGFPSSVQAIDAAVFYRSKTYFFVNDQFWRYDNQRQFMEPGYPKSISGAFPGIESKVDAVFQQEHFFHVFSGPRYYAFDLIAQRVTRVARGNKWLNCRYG
Take `COCCOC(=O)N1CCC(C(C(=O)O)N(Cc2cccnc2)S(=O)(=O)c2ccc(-c3ccc(OC)cc3)cc2)CC1` (stereo not given): the IC50 was 3.24 nM.
